Measured values reported in US7723564B2, “Compositions and methods for modulation of KSR1 and KSR2 interactions” (Board of Regents of the University of Nebraska, priority 2006, dated 2010).

Key:
AMPK-KSR1 interaction = assay: Coimmunoprecipitation of AMPK with KSR1; assay type: cell-based; settings: AMPK expressed in cells with KSR1; FIG. 22
Excerpt: (§1) FIG. 22. is a series of western blots showing that AMPK coimmunopreciptates with KSR1 and KSR2.
(§2) AMP activated protein kinase (AMPK) is a critical regulator of catabolism in cells, promoting the synthesis of ATP and inhibiting the anabolic effects of other hormones to promote […]. AMPK is an indirect target of the widely prescribed anti-diabetic drug metformin. […] When AMPK is expressed in cells with either KSR or KSR2, AMPK is found to precipitate with either protein. AMPK is not precipitated in the absence of KSR proteins.

AMPK-KSR2 interaction = assay: Coimmunoprecipitation of AMPK with KSR2; assay type: cell-based; settings: AMPK expressed in cells with KSR2; FIG. 22
Excerpt: as §1, §2

With `CC[C@H]1/C=C/C=C/C[C@@H](C)[C@H](O)[C@@](C)(O)C(=O)[C@@H](C)[C@H](O)[C@@H](C)C(=O)[C@@H](C)[C@H](O)[C@@H](C)/C=C/C(=O)O[C@@H]2[C@H](C)[C@H](CC1)O[C@]1(CC[C@H](C)[C@H](C[C@@H](C)O)O1)[C@H]2C` [oligomycin] the “Effect on interaction of AMPK with KSR1” value (AMPK-KSR1 interaction) was “does not alter” and the “Effect on interaction of AMPK with KSR2” value (AMPK-KSR2 interaction) was “does not alter”.
